# According to patent US10800794B2, “Heterocycle-substituted bicyclic azole pesticides” (priority 2015, dated 2020):
# Test system: sweetpotato whitefly (Bemisia tabaci (Gennadius))
# Experiment: Test D: control of sweetpotato whitefly through contact and/or systemic means, sprayed cotton plant infested with eggs
# Format: in vivo
# Conditions: sprayed at 50 ppm, assessed after 13 days at 28° C.
# Description: Test compounds were formulated using a solution containing 10% acetone, 90% water and 300 ppm X-77® Spreader Lo-Foam Formula non-ionic surfactant containing alkylarylpolyoxyethylene, free fatty acids, glycols and isopropanol (Loveland Industries, Inc. Greeley, Colo., USA). The formulated compounds were applied in 1 mL of liquid through a SUJ2 atomizer nozzle with ⅛ JJ custom body (Spraying Systems Co. Wheaton, Ill., USA) positioned 1.27 cm (0.5 inches) above the top of each test unit. Test compounds were sprayed at the rates indicated, and each test was replicated three times.
# For evaluating control of the sweetpotato whitefly (Bemisia tabaci (Gennadius)) through contact and/or systemic means, the test unit consisted of a small open container with a 12-14-day-old cotton plant inside. Prior to the spray application, both cotyledons were removed from the plant, leaving one true leaf for the assay. Adult whiteflies were allowed to lay eggs on the plant and then were removed from the test unit. Cotton plants infested with at least 15 eggs were submitted to the test for spraying.
# Test compounds were formulated and sprayed at 250 and/or 50 ppm. After spraying, the test units were allowed to dry for 1 hour. […] Each test unit was then visually assessed for insect mortality.
compound,measurement,value
CN(C)C(=O)C(C)(C)NC(=O)c1csc2nc(-c3cncc(F)c3)cn12 [Compound 14],mortality,at least 80%
